Source: US20240092756A1, “METHODS AND COMPOSITION FOR KRAS MODIFICATIONS” (2692372 ONTARIO, INC., priority 2020, published 2024)

Legend:
[1] = molecular target: KRAS G12C Lite (SEQ ID NO:3) (Homo sapiens, UniProt P01116, C118S/C51S/C80S/G12C/S136P/S39C); experiment: Intact mass analysis (LC-MS) of covalent modification, KRAS G12C Lite; format: binding; parameters: key to KRAS Lite Modification: a: KRAS Lite modified; conditions: intact mass spectrometry; covalent modification of KRAS G12C Lite
Summary of the method: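 Protein (2 μM) reacted with compound (100 μM) for 24 h at 25° C in 20 mM HEPES pH 8, 150 mM NaCl, 2% DMSO, 2% glycerol, then analysed by intact-mass LC-MS (C4 column, positive-ion TOF). Up to 8 cysteine adducts allowed on deconvolution; adducts <2% of base peak ignored. % modification = adduct intensity over total protein plus adduct intensities.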

[2] = molecular target: T1, KRAS G12C (SEQ ID NO:1 or SEQ ID NO:2) (Homo sapiens, UniProt P01116, G12C); experiment: Intact mass analysis (LC-MS) of covalent modification, KRAS G12C; format: binding; parameters: key to KRAS G12C Modification: b: KRAS G12C modified; conditions: intact mass spectrometry; covalent modification of KRAS G12C FL
T1 construct: purchased
T1 sequence (P01116 with tags, fused parts or gaps isoform P01116-2 G12C): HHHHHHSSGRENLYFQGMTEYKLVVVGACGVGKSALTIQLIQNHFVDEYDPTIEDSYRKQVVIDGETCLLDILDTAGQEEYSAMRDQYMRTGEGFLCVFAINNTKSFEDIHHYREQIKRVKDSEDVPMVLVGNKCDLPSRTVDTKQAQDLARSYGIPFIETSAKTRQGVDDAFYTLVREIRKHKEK
Method: The covalent modification of the proteins with the compounds were evaluated using intact mass analysis by liquid chromatography-mass spectrometry instrument (LC-MS/MS).
The reaction solution (20 μL) was prepared in 96-well plate and contained the protein (2 μM), the compound (100 μM), HEPES buffer (20 mM, pH 8), 2% DMSO, 2% glycerol, and 150 mM NaCl. The reaction was allowed to proceed for 24 h at 25° C. The reaction solution (1 μL) was injected into the LC/MS/MS without any further sample preparation.
The LC-MS/MS instrument comprises of a Waters G2-XS quadrupole-time of flight (QTof) mass spectrometer and a Waters Acuity I-class Ultra-High Performance Liquid Chromatography (UPLC) system. The I-class UPLC system includes a binary solvent manager (BSM), and an Acquity sample manager (SM). The mobile phase consisted of: A) 0.1% (v/v) formic acid in MilliQ water; B) 0.1% (v/v) formic acid acetonitrile. Gradients were run over 5 min and proceeded as follows: A:B, 85:15, 0.0-0.7 min, 85:15→15:85, 0.7-1.5 min, 10:90, 1.5-4 min, 10:90→85:15, 4-4.5 min, 85:15, 4.5-5 min. The analytical column was a Waters BEH C4 column 1.7 μm (50×1 mm) column with pore sizes of 300 Å. The TOF MS data was collected in positive ion mode (m/z of 400-2000 Da) using MassLynx software (Waters).
The spectral deconvolution was performed using UNIFI software (Waters). The added mass of the protein upon covalent modification to cysteine residues were specified. Multiple modification of up to 8 cysteine was allowed. All the adducts with signal intensities of <2% of the base peak were ignored. The % modification was calculated as the adduct signal intensity over the total intensities of the protein peaks and the adducts.

[3] = test system: phospho-ERK1/2 in MIA PaCa-2 cells (express KRAS G12C); experiment: ERK1/2 phosphorylation in MIA PaCa-2 cells; format: cell-based, human; parameters: key: X: KRAS G12C bound and modulated in cells

Sequence of KRAS G12C Lite (SEQ ID NO:3) (P01116 other isoform, or with tags, fused parts or gaps G12C/S39C/C51S/C80S/C118S/S136P): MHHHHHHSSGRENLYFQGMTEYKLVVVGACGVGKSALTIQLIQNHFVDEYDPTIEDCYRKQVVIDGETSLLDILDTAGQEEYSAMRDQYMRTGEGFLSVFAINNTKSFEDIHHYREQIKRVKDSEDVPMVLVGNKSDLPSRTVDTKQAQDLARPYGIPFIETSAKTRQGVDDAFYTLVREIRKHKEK

| KRAS Lite Modification [1] | KRAS G12C Modification [2] | Compound | pERK - MIA PaCa-2 - (6 hours, 5 uM) [3] |
| --- | --- | --- | --- |
| a | b | Cc1ccnc(C(C)C)c1-n1c(=O)nc(NC2CN(S(=O)(=O)c3c(F)c(F)c(F)c(F)c3C(F)(F)F)C2)c2cc(F)c(Cl)nc21 [Compound 14A, 7-chloro-6-fluoro-1-(2-isopropyl-4-methylpyridin-3-yl)-4-((1-((2,3,4,5-tetrafluoro-6-(trifluoromethyl)phenyl)sulfonyl)azetidin-3-yl)amino)pyrido[2,3-d]pyrimidin-2(1H)-one] | X |
| a | b | Cc1ccnc(C(C)C)c1-n1c(=O)nc(NC2CN(S(=O)(=O)c3c(F)c(F)c(F)c(F)c3C(F)(F)F)C2)c2cc(F)c(-c3c(O)cccc3F)nc21 [Compound 15A, 6-fluoro-7-(2-fluoro-6-hydroxyphenyl)-1-(2-isopropyl-4-methylpyridin-3-yl)-4-((1-((2,3,4,5-tetrafluoro-6-(trifluoromethyl)phenyl)sulfonyl)azetidin-3-yl)amino)pyrido[2,3-d]pyrimidin-2(1H)-one] | X |
